Results on 27 molecules are retold here after ChEMBL document CHEMBL3588748, “Original 2-(3-Alkoxy-1H-pyrazol-1-yl)azines Inhibitors of Human Dihydroorotate Dehydrogenase (DHODH)” (J Med Chem, 2015).

Active and inactive are the calls of the source. How the calls were made is not given here.

In one assay the test system is Plasmodium falciparum. Nature of the assay: Antiplasmodial activity against Plasmodium falciparum 3D7 assessed as inhibition of parasite growth at 8.66 ug/ml by SYBR Green I dye based assay. It counts as functional, organism-based.

Description for Measles morbillivirus: Antiviral activity against measles virus rMV2/Luc infected in HEK-293T cells assessed as inhibition of virus growth incubated for 24 hrs by firefly luciferase reporter gene assay

Regarding `CCOc1nn(-c2ccc(C3CC3)nn2)c(C)c1Oc1ccc(C(F)(F)F)cc1`, the “growth inhibition (GI)” value in the assay with Plasmodium falciparum is “inactive”. The molecule also displayed a pMIC50 in the assay with Measles morbillivirus of 5.2.
The corresponding values for `CCOc1nn(-c2ccc(C3CC3)nn2)c(C)c1Oc1ccccc1C(F)(F)F` are “inactive” and 6.8.
For the molecule `Cc1c(Oc2c(F)cccc2F)c(OC(C)C)nn1-c1cnc(C2CC2)nc1`, the “growth inhibition (GI)” value in the assay on Plasmodium falciparum is “inactive”. In the assay with Measles morbillivirus, this molecule registered a pMIC50 of 6.8.
Taken in the same sequence, the figures for `CCOc1nn(-c2cccc(F)n2)c(C)c1Cc1ccccc1` were “inactive” and <5.
Taken in the same sequence, the figures for `CCOc1nn(-c2ccc(C3CC3)cn2)c(C)c1Oc1cccc(C(F)(F)F)c1` were “inactive” and 7.1.
Regarding `CCOc1nn(-c2ccc(C3CC3)nn2)c(C)c1Oc1ccccc1Cl`, the “growth inhibition (GI)” value in the assay on Plasmodium falciparum was “inactive”. The molecule further gave a pMIC50 in the assay on Measles morbillivirus of 7.1.
For the molecule `COc1cc(C2CC2)cnc1-n1nc(OC(C)C)c(Oc2c(F)cccc2F)c1C`, the “growth inhibition (GI)” value in the assay with Plasmodium falciparum was “inactive”. In the assay with Measles morbillivirus, the pMIC50 amounted to 7.5.
As to `Cc1c(Oc2cccc(F)c2F)c(OC(C)C)nn1-c1ccc(C2CC2)cn1`, the “growth inhibition (GI)” value in the assay on Plasmodium falciparum is “inactive”. The pMIC50 in the assay on Measles morbillivirus was determined as 7.4.
As for `CCOc1nn(-c2ncc(C3CC3)cc2C#N)c(C)c1Cc1ccccc1`, in the assay on Plasmodium falciparum, the “growth inhibition (GI)” value was “inactive”. In the assay on Measles morbillivirus, this molecule yielded a pMIC50 of 6.6.
Taken in the same sequence, the figures for `CCOc1nn(-c2ccc(C3CC3)nn2)c(C)c1Oc1ccccc1F` were “inactive” and 7.7.
Consider `Cc1c(Oc2c(F)cccc2F)c(OC(C)C)nn1-c1ccc(C(C)(F)F)cn1`, for which the “growth inhibition (GI)” value in the assay on Plasmodium falciparum was “inactive”. The same molecule yielded a pMIC50 in the assay on Measles morbillivirus of 7.1.
For `CCOc1nn(-c2ccc(C3CC3)cn2)c(C)c1Oc1ccccc1Br`, the “growth inhibition (GI)” value in the assay with Plasmodium falciparum was “inactive”. Further, in the assay on Measles morbillivirus, the pMIC50 is listed as 7.8.
Consider `CCOc1nn(-c2ccc(C(=O)OC)cn2)c(C)c1Cc1ccccc1`, for which the “growth inhibition (GI)” value in the assay on Plasmodium falciparum was “inactive”. Also, the pMIC50 in the assay with Measles morbillivirus is listed as <5.
Regarding `CCOc1nn(-c2ccc(C(F)(F)F)cn2)c(C)c1Cc1ccccc1`, in the assay on Plasmodium falciparum, the “growth inhibition (GI)” value was “inactive”. In the assay on Measles morbillivirus, this molecule showed a pMIC50 of 5.5.
On to `CCOc1nn(-c2ccccn2)c(C)c1Cc1ccccc1`, for which, in the assay with Plasmodium falciparum, the “growth inhibition (GI)” value was “inactive”. Also, the pMIC50 in the assay on Measles morbillivirus was <5.
Regarding `Cc1c(Oc2c(F)cccc2F)c(OC(C)C)nn1-c1cnc(Br)cn1`, the “growth inhibition (GI)” value with Plasmodium falciparum was “inactive”. For the same molecule, in the assay on Measles morbillivirus, the pMIC50 was 5.5.
The corresponding values for `CCOc1nn(-c2ccc(C3CC3)cn2)c(C)c1Oc1cccc(Cl)c1Cl` are “inactive” and 7.9.
Take `Cc1c(Oc2c(F)cccc2F)c(OC(C)C)nn1-c1ncc(C2CC2)cc1N(C)C`: the “growth inhibition (GI)” value in the assay on Plasmodium falciparum is “inactive”. Besides, in the assay with Measles morbillivirus, the pMIC50 is 7.5.
Turning to `CCOc1nn(-c2ncc(C3CC3)cc2F)c(C)c1Cc1ccccc1`, the “growth inhibition (GI)” value with Plasmodium falciparum was “inactive”. The molecule further registered a pMIC50 in the assay with Measles morbillivirus of 7.
As to `Cc1c(-c2ccc(-c3ccccc3F)cc2)nc2ccc(F)cc2c1C(=O)O`, in the assay on Plasmodium falciparum, the “growth inhibition (GI)” value is “inactive”.
As to `Cc1ccc(-n2nc(OC(C)C)c(Oc3c(F)cccc3F)c2C)cn1`, in the assay with Plasmodium falciparum, the “growth inhibition (GI)” value was “inactive”.
`CCn1cnc(-n2nc(OC(C)C)c(Oc3c(F)cccc3F)c2C)c1`: the “growth inhibition (GI)” value in the assay with Plasmodium falciparum was “inactive”.
Regarding `Cc1c(Oc2c(F)cccc2F)c(OC(C)C)nn1-c1cnc(C(C)(C)C)nc1`, the “growth inhibition (GI)” value in the assay with Plasmodium falciparum is “inactive”.
On the same count and under the same terms, to `CCOc1ccc(-n2nc(OC(C)C)c(Oc3c(F)cccc3F)c2C)nn1` belongs “inactive”; to `CCc1ccc(-n2nc(OC(C)C)c(Oc3c(F)cccc3F)c2C)cn1`, “inactive”; to `COc1ccc(-n2nc(OC(C)C)c(Oc3c(F)cccc3F)c2C)cn1`, “inactive”.
As to `Cc1c(Oc2c(F)cccc2F)c(OC(C)C)nn1-c1cnc(C2CC2)cn1`, in the assay on Plasmodium falciparum, the “growth inhibition (GI)” value is “inactive”.
